Measured values reported in US20120214862A1, “MODULATION OF FACTOR 7 EXPRESSION” (ISIS Pharmaceuticals, Inc., priority 2009, published 2012).
In the oligonucleotide strings, read from the 5' end, every base follows the letter of its sugar. An asterisk marks phosphorothioate; unmarked linkages are phosphodiester. Other units and linkages are bracketed, terminal groups are in braces. A string of capitals states the bases alone. e = 2'-O-(2-methoxyethyl) (MOE); [5mC] = 5-methylcytosine; d = 2'-deoxy (DNA)

What follows are substances tested on human Factor 7 mRNA (assay: Antisense inhibition of human Factor 7 mRNA in HepB3 cells, lipofectin, 50 nM, real-time RT-PCR). Settings: Example 1; HepB3 cells, lipofectin, 50 nM, ~24 h, relative to untreated control cells.
Assay type: cell-based
Outline: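 Percent inhibition, untreated cells as reference: derived from RNA collected about 24 hours post-transfection of 4,000-cell wells, with the human RTS 2927 primer probe set and adjustment for total RNA content (RIBOGREEN®).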

Substance | % Inhibition (human Factor 7 mRNA)
407953 (antisense eA*e[5mC]*eA*eT*e[5mC]*d[5mC]*dA*dA*dT*dT*d[5mC]*d[5mC]*dA*d[5mC]*dA*eG*eG*eA*eT*e[5mC]) [compound 407953] | 20%
407902 (antisense e[5mC]*eA*e[5mC]*e[5mC]*e[5mC]*dA*dG*dA*dT*dG*dG*dT*dG*dT*dT*eG*eA*eT*e[5mC]*eA) [compound 407902] | 86%
407960 (antisense eG*eT*eG*e[5mC]*e[5mC]*d[5mC]*dA*dG*dG*dA*d[5mC]*dG*dG*d[5mC]*d[5mC]*e[5mC]*eT*eG*e[5mC]*eA) [compound 407960] | 53%
407921 (antisense e[5mC]*e[5mC]*eA*e[5mC]*eA*dG*dG*d[5mC]*d[5mC]*dA*dG*dG*dG*d[5mC]*dT*eG*e[5mC]*eT*eG*eG) [compound 407921] | 65%
407924 (antisense eG*eA*eT*eT*eT*dG*dG*dT*dG*d[5mC]*d[5mC]*dA*dG*dG*dA*e[5mC]*eA*eG*eT*eT) [compound 407924] | 68%
407600 (antisense eT*eG*eA*eA*eG*d[5mC]*d[5mC]*d[5mC]*dA*dA*dG*d[5mC]*dA*dG*dA*eA*eG*eG*e[5mC]*eA) [compound 407600] | 61%
407940 (antisense eT*eG*eT*eG*eA*dA*dG*d[5mC]*dT*dG*dG*dG*dA*dA*dG*e[5mC]*eA*eG*eG*eT) [compound 407940] | 62%
407616 (antisense eT*eG*e[5mC]*eA*eG*dG*dA*d[5mC]*dA*d[5mC]*d[5mC]*d[5mC]*d[5mC]*dG*dT*e[5mC]*eT*eG*e[5mC]*e[5mC]) [compound 407616] | 64%
407914 (antisense e[5mC]*e[5mC]*eA*eG*e[5mC]*dT*dG*dA*d[5mC]*dG*dA*dT*dG*d[5mC]*d[5mC]*e[5mC]*eG*eT*e[5mC]*eA) [compound 407914] | 82%
407933 (antisense eT*eG*eA*eT*eA*dA*dT*dG*dG*dA*dT*dA*dA*dG*dA*eA*e[5mC]*e[5mC]*eA*eG) [compound 407933] | 58%

Same assay, conditions: Example 4; HepB3 cells, lipofectin, 50 nM, ~24 h, relative to untreated control

Substance | % Inhibition (human Factor 7 mRNA)
422197 (antisense eT*eT*eA*d[5mC]*dT*dG*dA*dG*d[5mC]*dG*d[5mC]*dG*dG*dA*dA*dG*dA*eA*eG*eG) [compound 422197] | 26%
422120 (antisense e[5mC]*eG*e[5mC]*eG*eG*dA*dA*dG*dA*dA*dG*dG*dG*dA*d[5mC]*eG*eG*eA*eA*eG) [compound 422120] | 40%

Same assay, conditions: HepB3 cells, lipofectin, 50 nM antisense oligonucleotide, approximately 24 hours, primer probe set RTS 2927, relative to untreated control

Substance | % Inhibition of human Factor 7 mRNA levels
416425 (antisense eA*eA*eG*e[5mC]*eA*dG*dA*dA*dG*dG*d[5mC]*dA*dG*dA*dG*eG*eA*eG*e[5mC]*e[5mC]) [compound 416425] | 13%
416434 (antisense e[5mC]*eT*eG*eT*eA*dA*dG*dA*dA*dA*dT*d[5mC]*d[5mC]*dA*dG*eA*eA*e[5mC]*eA*eG) [compound 416434] | 0%
416509 (antisense eA*eG*eG*eA*eG*d[5mC]*d[5mC]*d[5mC]*dG*dA*dG*dT*dT*d[5mC]*dT*eG*e[5mC]*eA*eG*eG) [compound 416509] | 56%
416555 (antisense eA*eA*eA*eG*eA*dT*d[5mC]*dA*dG*dG*d[5mC]*dA*dA*dA*dG*eA*eT*e[5mC]*e[5mC]*e[5mC]) [compound 416555] | 6%
416497 (antisense e[5mC]*eG*eT*eG*e[5mC]*dA*dG*dG*dT*dG*dT*dT*dA*dA*dG*eG*eT*eG*eT*eG) [compound 416497] | 0%
416483 (antisense eT*eG*eT*eG*eA*dG*dG*dG*dT*dT*d[5mC]*dA*dT*dT*dT*e[5mC]*eA*eG*eT*eG) [compound 416483] | 22%
416527 (antisense eG*eA*eG*e[5mC]*eT*dT*d[5mC]*d[5mC]*d[5mC]*dA*dA*dG*dT*dT*dG*eG*e[5mC]*eA*eG*eT) [compound 416527] | 49%
416532 (antisense eG*eG*eA*e[5mC]*e[5mC]*d[5mC]*dA*dG*dA*dT*dG*dA*d[5mC]*d[5mC]*dA*eG*e[5mC]*eA*eG*eG) [compound 416532] | 12%

Same assay, conditions: HepB3 cells; gapmers (5-10-5, 3-14-3, 2-13-5 MOE) targeted to nucleobases 4868 to 4899 of SEQ ID NO: 1

Substance | % Inhibition of human Factor 7 mRNA levels
422224 (antisense eG*eG*eA*dG*d[5mC]*d[5mC]*d[5mC]*dG*dA*dG*dT*dT*d[5mC]*dT*dG*d[5mC]*dA*eG*eG*eA) [compound 422224] | 62%
416509 (antisense eA*eG*eG*eA*eG*d[5mC]*d[5mC]*d[5mC]*dG*dA*dG*dT*dT*d[5mC]*dT*eG*e[5mC]*eA*eG*eG) [compound 416509] | 60%

Same assay, conditions: HepB3 cells; gapmers targeted to nucleobases 11830 to 11869 of SEQ ID NO: 1 (Table 9)

Substance | % Inhibition of human Factor 7 mRNA levels
422093 (antisense eA*eA*eT*eG*eG*dT*d[5mC]*dA*dG*dG*dG*d[5mC]*dT*dG*dG*eT*eT*eT*eT*eG) [compound 422093] | 42%
422104 (antisense eG*eG*e[5mC]*eT*eG*dA*dG*dG*dA*dG*dA*d[5mC]*dA*dA*dT*eG*eG*eT*e[5mC]*eA) [compound 422104] | 59%
422247 (antisense eG*e[5mC]*dT*dG*dA*dG*dG*dA*dG*dA*d[5mC]*dA*dA*dT*dG*eG*eT*e[5mC]*eA*eG) [compound 422247] | 36%
422162 (antisense eG*eA*e[5mC]*dA*dA*dT*dG*dG*dT*d[5mC]*dA*dG*dG*dG*d[5mC]*dT*dG*eG*eT*eT) [compound 422162] | 59%
422088 (antisense eT*e[5mC]*eA*eG*eG*dG*d[5mC]*dT*dG*dG*dT*dT*dT*dT*dG*eG*eA*eG*eG*eA) [compound 422088] | 8%
422163 (antisense eA*eG*eA*d[5mC]*dA*dA*dT*dG*dG*dT*d[5mC]*dA*dG*dG*dG*d[5mC]*dT*eG*eG*eT) [compound 422163] | 56%

Same assay, conditions: HepB3 cells; gapmers targeted to nucleobases 13760 to 13789 of SEQ ID NO: 1 (Table 10)

Substance | % Inhibition of human Factor 7 mRNA levels
422115 (antisense eG*e[5mC]*eG*e[5mC]*e[5mC]*dA*d[5mC]*d[5mC]*d[5mC]*dG*d[5mC]*d[5mC]*dG*dG*d[5mC]*eT*e[5mC]*eT*eG*e[5mC]) [compound 422115] | 66%
422181 (antisense eG*e[5mC]*e[5mC]*dA*d[5mC]*d[5mC]*d[5mC]*dG*d[5mC]*d[5mC]*dG*dG*d[5mC]*dT*d[5mC]*dT*dG*e[5mC]*eT*e[5mC]) [compound 422181] | 66%
422112 (antisense e[5mC]*e[5mC]*eA*e[5mC]*e[5mC]*d[5mC]*dG*d[5mC]*d[5mC]*dG*dG*d[5mC]*dT*d[5mC]*dT*eG*e[5mC]*eT*e[5mC]*eA) [compound 422112] | 61%

Same assay, conditions: HepB3 cells; gapmers targeted to nucleobases 14707 to 14732 of SEQ ID NO: 1 (Table 11)

Substance | % Inhibition of human Factor 7 mRNA levels
422277 (antisense e[5mC]*e[5mC]*dT*dG*dA*dG*dG*d[5mC]*d[5mC]*dA*dG*d[5mC]*dA*dG*dA*eT*e[5mC]*eA*e[5mC]*eG) [compound 422277] | 56%
422203 (antisense e[5mC]*eA*eG*d[5mC]*d[5mC]*dT*dG*dA*dG*dG*d[5mC]*d[5mC]*dA*dG*d[5mC]*dA*dG*eA*eT*e[5mC]) [compound 422203] | 52%
422200 (antisense e[5mC]*e[5mC]*eT*dG*dA*dG*dG*d[5mC]*d[5mC]*dA*dG*d[5mC]*dA*dG*dA*dT*d[5mC]*eA*e[5mC]*eG) [compound 422200] | 58%

Same assay, conditions: HepB3 cells; gapmers targeted to nucleobases 15188 to 15211 of SEQ ID NO: 1 (Table 13)

Substance | % Inhibition of human Factor 7 mRNA levels
422151 (antisense eT*eG*e[5mC]*dA*dT*dG*dG*dT*dG*dA*dT*dG*d[5mC]*dT*dT*d[5mC]*dT*eG*eA*eA) [compound 422151] | 68%
